The source of these data is US6172061A, “Pharmaceutical composition for antagonizing CCR5 comprising anilide derivative” (Takeda Chemical Industries, Ltd., priority 1997, dated 2001).

For one assay, the target named is T1, human CCR5 (Homo sapiens, UniProt P51681).
T1 construct: expressed in transfected cells; host or cells: CHO-K1 (plasmid pCKR5 in pcDNA3.1, geneticin-selected CHO/CCR5 cells)
Put plainly: inhibition of [^125 I]-RANTES binding to CHO/CCR5 cells (CCR5 antagonistic activity). Particulars: Test Compound 1 μM, 100 pM [^125 I]-RANTES, room temperature 30 minutes; for inhibition at 1 µM: read-out: Inhibition Rate (%) to CCR5 binding. On the procedure: Cloning of CCR5 gene was carried out by PCR (polymerase chain reaction) from human spleen cDNA. With using 0.5 ng of spleen cDNA (Toyobo, QUICK-Clone cDNA) as template, PCR was performed in DNA Thermal Cycler 480 (Perkin-Elmer) (reaction conditions: 30 cycles of 95° C. for 1 minute, 60° C. for 1 minute, and 75° C. for 5 minutes) by adding primer set, 5'-CAGGATCCGATG […]-3' (25 pmol) and 5'-TCTAGATCACAAGCC CACAGATATTTCCTGCTCC-3' (25 pmol), which were designed referring to nucleotide sequence of CCR5 gene reported by Samson et al. (Biochemistry, 35(11), 3362-3367 (1996)) and by using TaKaRa EX Taq (Takara Shuzo). The resultant PCR product was subjected to agarose gel electrophoresis to collect about 1.0 kb DNA fragment, which was subjected to Original TA Cloning Kit (Funakoshi) to carry out cloning of CCR5 gene.
The plasmid obtained in the above (1) was digested with restriction enzymes XbaI (Takara Shuzo) and BamHI (Takara Shuzo) and subjected to agarose gel electrophoresis to collect about 1.0 kb DNA fragment. The DNA fragment was mixed with plasmid pcDNA3.1 (Funakoshi) for expression in animal cells, said plasmid being digested with XbaI and BamHI, and they were ligated with DNA Ligation Kit Ver.2 (Takara Shuzo). The resulting plasmid was subjected to transformation of competent cell of E. coli JM109 (Takara Shuzo) to obtain plasmid pCKR^5.
CHO-K1 cells were grown in 750 ml of tissue culture flask (Becton Dickinson) using Ham's F12 medium (Nihon Pharmaceutical) containing 10% fetal calf serum (Life Tech Oriental) and took off with 0.5 g/L trypsin-0.2 g/L EDTA (Life Tech Oriental). The cells were washed with PBS (Life Tech Oriental), centrifuged (1000 rpm, 5 minutes), and suspended in PBS. With using Gene Pulser (Bio-Rad Laboratories), DNA was introduced into the cells under the conditions shown below. That is, to the cuvette of 0.4 cm gap were added 8×10^6 cells and 10 μg of plasmid pCKR^5 for expression of human CCR5, and electroporation was carried out under 0.25 kV of voltage and 960 μF of capacitance. The cells were transferred into Ham's F12 medium (Nihon Pharmaceutical) containing 10% fetal calf serum, and cultivated for 24 hours. The cells were again took off and centrifuged, and suspended in Ham's F12 medium (Nihon Pharmaceutical) containing 10% fetal calf serum and 500 μg/ml of geneticin (Life Tech Oriental). The suspension was diluted to give 10^4 cells/ml of the suspension, which was inoculated on 96 well plate (Becton Dickinson) to give geneticin resistant cells. The resulting geneticin resistant cells were cultivated in 96 well plate (Becton Dickinson), and cells expressing CCR5 were selected from the geneticin resistant cells. That is, in assay buffer (Ham's F12 medium containing 0.5% BSA and 20 mM HEPES (Wako Pure Chemical, pH7.2) to which was added 200 pM of [^125 I]-RANTES (Amersham) as ligand, binding reaction as carried out at room temperature for 40 minutes, and the buffer was washed with cooled PBS. To the buffer was added 50 μl/well of 1M NaOH, and the mixture was stirred. Radioactivity was determined with γ-counter to select CHO/CCR5 cells which specifically bind to the ligand.
The CHO/CCR5 were inoculated on 96 well microplate (5×10^4 cells/well) and cultivated for 24 hours. The medium was removed by means of suction, and to each well was added assay buffer containing Test Compound (1 μM) and then 100 pM of [^125 I]-RANTES (Amersham) as ligand. Binding assay was carried out at room temperature for 30 minutes, and assay buffer was removed by means of suction. Each well was washed twice with cooled PBS, and 200 μl of Microscint-20 (Packard Instrument, Inc.) was added to each well. Radio-activity was determined with Top-Count Micro Scintillation Counter (Packard Instrument, Inc.).
According to the method described above, inhibition rate of Test Compound (whose number is referred to in the following Examples) to CCR5 binding.

The test system of assay [1] is HIV-1. As to the kind of experiment: Inhibitory Effect on HIV-1 Infection to MAGI^- CCR5 Cell. In kind it is cell-based, HIV-1 BA-L. Particulars: MAGI-CCR5 cells, 2 days. How it is done:
The plasmid where β-galactosidase gene was ligated downstream of HIV-1 LTR was introduced into CD4 positive HeLa cell, to which human CCR5 was further introduced to obtain transformant MAGI^- CCR5. By using said transformant MAGI^- CCR5, degree of HIV-1 infection was calculated from β-galactosidase activity (blue color due to decomposition of 5-bromo-4-chloro-3-indolyl-β-D-galactopyranoside).
Specifically, MAGI-CCR5 cells were suspended in DMEM medium containing 10% serum to prepare 5×10^4 cells/ml suspension. To each well of 96 well plate was inoculated 200 μl of the suspension, and the cells were cultivated at 37° C. overnight. The medium was removed by means of suction, and to the residue was added 100 μl of the above medium containing 1.6μM of Test Compound 96 or 0.064 μM of Test Compound 248 and 100 μl of the above medium containing 300 PFU of HIV-1 BA-L cells. The cells were cultivated at 37° C. for 2 days. The medium was removed by means of suction. To the residue was added 200 μl of cell fixative (PBS containing 1% formaldehyde and 0.2% glutaraldehyde), and the mixture was allowed to stand at room temperature for 5 minutes and washed twice with PBS. […] The number of blue cells was counted by microscope and defined as the number of cells infected with HIV-1.

The subject of assay [2] is HIV-1. Put plainly: Inhibitory Effect on HIV-1 Infection to Human PBMC. The assay is classed as cell-based, HIV-1 BA-L. As to conditions: 7 days, p24 antigen ELISA. On the procedure:
From normal person human peripheral blood mononuclear cells (PBMC) were separated, and the cells were stimulated with 10 μg/ml of PHA (Phytohemaglutinin) and 20U/ml of interleukin-2 (IL-2) for 3 days. The cells were suspended in RPMI-1640 medium containing 20% serum to prepare 1×10^6 /ml suspension. To the suspension were infected HIV-1 BA-L cells (20 ng as an amount of p24 antigen), and viruses were absorbed at 37° C. for 2 hours. The cells were washed and suspended in RPMI-1640 medium containing 20% serum and IL-2 20 U/ml to prepare 1×10^5 /ml suspension. To the PBMC suspension was added the same amount of a solution which contains 2.0 μM of Test Compound 96 or 0.32 μM of Test Compound 248, and the cells were cultivated at 37° C. for 7 days in carbon dioxide gas incubator. The amount of p24 antigen in supernatant of the cultivated medium was determined by enzyme-linked immunosorbent assay (ELISA) and defined as degree of HIV-1 infection.

SMILES strings stand for the structures.

T1 sequence (P51681 whole entry): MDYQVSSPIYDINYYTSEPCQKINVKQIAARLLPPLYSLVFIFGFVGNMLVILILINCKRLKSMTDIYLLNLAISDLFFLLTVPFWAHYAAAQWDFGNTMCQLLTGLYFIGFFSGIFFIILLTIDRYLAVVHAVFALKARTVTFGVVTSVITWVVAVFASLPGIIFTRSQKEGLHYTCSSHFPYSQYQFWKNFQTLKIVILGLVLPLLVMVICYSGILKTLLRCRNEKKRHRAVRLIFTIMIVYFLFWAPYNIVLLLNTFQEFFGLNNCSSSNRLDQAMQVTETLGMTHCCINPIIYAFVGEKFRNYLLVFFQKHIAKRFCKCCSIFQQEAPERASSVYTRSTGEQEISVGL

In the case of `CCOc1ccc(-c2ccc3c(c2)C=C(C(=O)Nc2ccc(C[N+](C)(C)C4CCOCC4)cc2)CCO3)cc1` [Compound 250, N-(4-(((7-(4-ethoxyphenyl)-2,3-dihydro-1-benzoxepin-4-yl)carbonyl)amino)benzyl)-N,N-dimethyl-N-(4-tetrahydropyranyl)ammonium chloride], the inhibition at 1 µM on human CCR5 was 96%.

Take `Cc1ccc(-c2ccc3c(c2)C=C(C(=O)Nc2ccc(C[N+]4(C)CCCCC4)cc2)CCC3)cc1` [Compound 92, 1-(N-(2-(4-methylphenyl)-6,7-dihydro-5H-benzocycloheptene-8-carbonyl)-4-aminobenzyl)-1-methylpiperidinium iodide]: on human CCR5, the inhibition at 1 µM turned out to be 100%.

As to `Cc1ccc(-c2ccc3c(c2)C=C(C(=O)Nc2ccc(C[N+](C)(C)C4CCC(=O)CC4)cc2)CCO3)cc1` [Compound 249, N,N-dimethyl-N-(4-(((7-(4-methylphenyl)-2,3-dihydro-1-benzoxepin-4-yl)carbonyl)amino)benzyl)-N-(4-oxocyclohexyl)ammoniumchloride], the inhibition at 1 µM on human CCR5 came out at 96%.

`Cc1ccc(-c2ccc3c(c2)C=C(C(=O)Nc2ccc(C[N+]4(C)CCCCC4)cc2)CCO3)cc1` [Compound 96, 1-(N-(7-(4-methylphenyl)-2,3-dihydro-1-benzoxepin-4carbonyl)-4-aminobenzyl)-1-methylpiperidinium iodide]: the figures for the “inhibition rate on HIV-1 infection” value in the assay with HIV-1 [1] (100 μl medium containing 1.6 μM Test Compound 96 plus 100 μl medium with 300 PFU HIV-1 BA-L) and with HIV-1 [2] (same amount of solution containing 2.0 μM Test Compound 96 added) were 92% and 96%, respectively. Besides, the inhibition at 1 µM at human CCR5 was 93%.

As to `Cc1ccc(-c2ccc3c(c2)C=C(C(=O)Nc2ccc(C[N+]4(C)CCCCC4)cc2)CCO3)cc1` [Compound 97, 1-(N-(7-(4-methylphenyl)-2,3-dihydro-1-benzoxepin-4-carbonyl)-4-aminobenzyl)-1-methylpiperidinium chloride], the “Inhibition Rate (%) to CCR5 binding” value on human CCR5 stood at 94%.

For the compound `Cc1ccc(-c2ccc3c(c2)C=C(C(=O)Nc2ccc(C[N+]4(C)CCCCC4)cc2)CC3)cc1` [Compound 16, 1-methyl-1-[4-[7-(4-methylphenyl)-3,4-dihydronaphthalene-2-carboxamido]benzyl]piperidinium iodide], the inhibition at 1 µM on human CCR5 was 88%.

With `CC(C)(C)c1ccc(-c2ccc3c(c2)C=C(C(=O)Nc2ccc(CP4(=O)CCCCC4)cc2)CCO3)cc1` [Compound 180, N-(4-(pentamethylene)phosphorylmethyl-phenyl)-7-(4-tert-butylphenyl)-2,3-dihydro-1-benzoxepine-4-carboxamide], the inhibition at 1 µM at human CCR5 came to 99%.

As for `Cc1ccc(-c2ccc3c(c2)C=C(C(=O)Nc2ccc(CC[N+]4(C)CCCCC4)cc2)CCO3)cc1` [Compound 100, N-((7-(4-methylphenyl)-2,3-dihydro-1-benzoxepin-4-carbonyl)-2-(4-aminophenyl)ethyl)-N-methylpiperidinium iodide], the inhibition at 1 µM on human CCR5 was 100%.

Regarding `Cc1ccc(-c2ccc3c(c2)C=C(C(=O)Nc2ccc(CN(C)C4CCOCC4)cc2)CCO3)cc1` [Compound 128, N-(4-(N-methyl-(N-tetrahydropyran-4-yl)aminomethyl)-phenyl)-7-(4-methylphenyl)-2,3-dihydro-1-benzoxepine-4-carboxamide], at human CCR5, the inhibition at 1 µM was 87%.

In the case of `Cc1ccc(-c2ccc3c(c2)C=C(C(=O)Nc2ccc(CP4(=O)OCCCO4)cc2)CCO3)cc1` [Reference Example 51, 2-(4-(7-(4-methylphenyl)-2,3-dihydro-1-benzoxepin-4-carbonylamino)benzyl)-1,3,2-dioxaphosphorinane-2-oxide], on human CCR5, the inhibition at 1 µM was found to be 73%.

As to `Cc1ccc(-c2ccc3c(c2)C=C(C(=O)Nc2ccc(C[N+](C)(C)C4CCOCC4)cc2)CCC3)cc1` [Compound 248, N,N-dimethyl-N-(4-(((2-(4-methylphenyl)-6,7-dihydro-5H-benzocyclohepten-8-yl)carbonyl)amino)benzyl)-N-(4-tetrahydropyranyl)ammonium chloride], the “inhibition rate on HIV-1 infection” value in the assay with HIV-1 [1] (100 μl medium containing 0.064 μM Test Compound 248 plus 100 μl medium with 300 PFU HIV-1 BA-L) worked out at 100%; in the assay with HIV-1 [2] (same amount of solution containing 0.32 μM Test Compound 248 added), 74%. Moreover, the inhibition at 1 µM at human CCR5 is 99%.

For `Cc1ccc(-c2ccc(/C=C/C(=O)Nc3ccc(CP4(=O)CCCCC4)cc3)s2)cc1` [Compound 209, (E)-N-(4-pentamethylenephosphorylmethylphenyl)-3-[5-(4-methylphenyl)-thiophen-2-yl]acrylic amide], the inhibition at 1 µM at human CCR5 was found to be 80%.
